Measurements reported in the NIST ThermoML archive (doi:10.1021/je5005752).

Assay: xn = mol fraction of the nth substance listed
Conditions: 101 kPa, Liquid; for viscosity: Falling or rolling sphere viscometry; for mass density: Vibrating tube method

CCCC(=O)OCC [ethyl butanoate] + CCCO
Conditions	mass density, 288.15 K [kg/m3]	mass density, 293.15 K [kg/m3]	mass density, 298.15 K [kg/m3]	mass density, 303.15 K [kg/m3]	viscosity, 288.15 K [mPa·s]	viscosity, 293.15 K [mPa·s]	viscosity, 298.15 K [mPa·s]	viscosity, 303.15 K [mPa·s]
x1 = 0.1001	819.96	815.72	811.45	807.15	1.784	1.599	1.438	1.3
x1 = 0.2	830.48	826.03	821.55	817.04	1.392	1.262	1.147	1.048
x1 = 0.2999	839.77	835.14	830.49	825.81	1.151	1.054	0.9686	0.8932
x1 = 0.3994	848.08	843.3	838.5	833.68	1.008	0.9293	0.8586	0.7965
x1 = 0.4999	855.6	850.69	845.76	840.81	0.9046	0.8397	0.7808	0.727
x1 = 0.6002	862.45	857.44	852.4	847.35	0.8354	0.779	0.7275	0.68
x1 = 0.6998	868.56	863.46	858.34	853.2	0.7874	0.737	0.6906	0.6481
x1 = 0.8001	874.16	868.99	863.8	858.59	0.7517	0.706	0.6636	0.624
x1 = 0.9001	879.26	874.03	868.79	863.53	0.7286	0.6861	0.6465	0.6098
x1 = 1	884.16	878.9	873.62	868.33	0.7224	0.6808	0.643	0.6072
